Measurements reported in US20230079819A1, “COMPOUNDS AND USES THEREOF” (Foghorn Therapeutics Inc., priority 2019, published 2023).
Like-named read-outs stand apart in the source and are kept apart here. Blank lines part the entries; values can stand above or below the molecule they belong to.

How the values were obtained:
BRM = target: T1, BRM (Homo sapiens, UniProt P51531); test: ATPase catalytic activity of BRM, ADP-Glo in vitro biochemical assay; conditions: 30 nM BRM, 400 μM ATP
T1 construct: made in house; host or cells: High Five insect cells

BRG-1 = target: T2, BRG-1 (Homo sapiens, UniProt P51532); test: ATPase catalytic activity of BRG-1, ADP-Glo in vitro biochemical assay; conditions: 30 nM BRG-1, 400 μM ATP
T2 construct: made in house; host or cells: High Five insect cells

[1] = ATPase catalytic activity, read-out: BRM IP50 (μM)*
[2] = ATPase catalytic activity, read-out: BRG1 IP50 (μM)*
[3] = ATPase catalytic activity, read-out: BRM IP50
[4] = ATPase catalytic activity, read-out: BRG1 IP50

T1 sequence (P51531 whole entry): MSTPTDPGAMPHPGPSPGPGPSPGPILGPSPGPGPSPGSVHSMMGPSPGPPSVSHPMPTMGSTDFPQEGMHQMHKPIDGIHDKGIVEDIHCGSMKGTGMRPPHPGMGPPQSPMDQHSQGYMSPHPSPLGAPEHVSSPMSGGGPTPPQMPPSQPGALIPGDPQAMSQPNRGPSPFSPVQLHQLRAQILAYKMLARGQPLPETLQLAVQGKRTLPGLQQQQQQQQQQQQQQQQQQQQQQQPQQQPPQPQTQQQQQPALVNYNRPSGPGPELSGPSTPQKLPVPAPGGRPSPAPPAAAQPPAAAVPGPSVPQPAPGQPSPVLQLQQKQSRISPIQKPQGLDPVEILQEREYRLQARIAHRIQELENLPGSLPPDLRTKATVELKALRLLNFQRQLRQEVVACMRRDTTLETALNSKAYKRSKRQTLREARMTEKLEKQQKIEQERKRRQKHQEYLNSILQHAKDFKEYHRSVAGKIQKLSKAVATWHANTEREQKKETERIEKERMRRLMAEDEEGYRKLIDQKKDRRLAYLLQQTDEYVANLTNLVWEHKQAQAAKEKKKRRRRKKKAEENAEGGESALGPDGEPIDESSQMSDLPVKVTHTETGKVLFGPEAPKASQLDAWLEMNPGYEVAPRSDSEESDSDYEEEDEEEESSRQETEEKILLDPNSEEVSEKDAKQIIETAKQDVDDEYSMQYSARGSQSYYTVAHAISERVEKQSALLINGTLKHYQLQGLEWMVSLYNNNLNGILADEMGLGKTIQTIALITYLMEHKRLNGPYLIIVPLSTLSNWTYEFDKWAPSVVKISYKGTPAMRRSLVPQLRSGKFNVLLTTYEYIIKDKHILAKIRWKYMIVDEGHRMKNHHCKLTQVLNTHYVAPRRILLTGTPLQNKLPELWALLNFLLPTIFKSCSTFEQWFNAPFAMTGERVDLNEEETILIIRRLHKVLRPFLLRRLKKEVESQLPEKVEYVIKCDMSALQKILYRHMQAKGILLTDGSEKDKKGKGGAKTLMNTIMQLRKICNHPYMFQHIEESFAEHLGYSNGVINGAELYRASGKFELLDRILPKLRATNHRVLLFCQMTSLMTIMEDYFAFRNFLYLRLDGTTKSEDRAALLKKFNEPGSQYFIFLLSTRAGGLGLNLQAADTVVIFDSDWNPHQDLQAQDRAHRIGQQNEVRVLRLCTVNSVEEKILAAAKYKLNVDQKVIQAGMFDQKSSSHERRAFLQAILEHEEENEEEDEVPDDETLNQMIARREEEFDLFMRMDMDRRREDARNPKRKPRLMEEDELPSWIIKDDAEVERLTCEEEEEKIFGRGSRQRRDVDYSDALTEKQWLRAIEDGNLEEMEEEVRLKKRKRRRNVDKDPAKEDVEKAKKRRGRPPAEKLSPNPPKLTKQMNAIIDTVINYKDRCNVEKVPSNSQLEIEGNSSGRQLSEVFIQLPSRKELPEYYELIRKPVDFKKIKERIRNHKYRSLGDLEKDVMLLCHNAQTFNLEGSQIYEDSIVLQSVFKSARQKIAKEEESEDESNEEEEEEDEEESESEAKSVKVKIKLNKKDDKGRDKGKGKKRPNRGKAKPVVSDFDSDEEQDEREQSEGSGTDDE
T2 sequence (P51532 whole entry): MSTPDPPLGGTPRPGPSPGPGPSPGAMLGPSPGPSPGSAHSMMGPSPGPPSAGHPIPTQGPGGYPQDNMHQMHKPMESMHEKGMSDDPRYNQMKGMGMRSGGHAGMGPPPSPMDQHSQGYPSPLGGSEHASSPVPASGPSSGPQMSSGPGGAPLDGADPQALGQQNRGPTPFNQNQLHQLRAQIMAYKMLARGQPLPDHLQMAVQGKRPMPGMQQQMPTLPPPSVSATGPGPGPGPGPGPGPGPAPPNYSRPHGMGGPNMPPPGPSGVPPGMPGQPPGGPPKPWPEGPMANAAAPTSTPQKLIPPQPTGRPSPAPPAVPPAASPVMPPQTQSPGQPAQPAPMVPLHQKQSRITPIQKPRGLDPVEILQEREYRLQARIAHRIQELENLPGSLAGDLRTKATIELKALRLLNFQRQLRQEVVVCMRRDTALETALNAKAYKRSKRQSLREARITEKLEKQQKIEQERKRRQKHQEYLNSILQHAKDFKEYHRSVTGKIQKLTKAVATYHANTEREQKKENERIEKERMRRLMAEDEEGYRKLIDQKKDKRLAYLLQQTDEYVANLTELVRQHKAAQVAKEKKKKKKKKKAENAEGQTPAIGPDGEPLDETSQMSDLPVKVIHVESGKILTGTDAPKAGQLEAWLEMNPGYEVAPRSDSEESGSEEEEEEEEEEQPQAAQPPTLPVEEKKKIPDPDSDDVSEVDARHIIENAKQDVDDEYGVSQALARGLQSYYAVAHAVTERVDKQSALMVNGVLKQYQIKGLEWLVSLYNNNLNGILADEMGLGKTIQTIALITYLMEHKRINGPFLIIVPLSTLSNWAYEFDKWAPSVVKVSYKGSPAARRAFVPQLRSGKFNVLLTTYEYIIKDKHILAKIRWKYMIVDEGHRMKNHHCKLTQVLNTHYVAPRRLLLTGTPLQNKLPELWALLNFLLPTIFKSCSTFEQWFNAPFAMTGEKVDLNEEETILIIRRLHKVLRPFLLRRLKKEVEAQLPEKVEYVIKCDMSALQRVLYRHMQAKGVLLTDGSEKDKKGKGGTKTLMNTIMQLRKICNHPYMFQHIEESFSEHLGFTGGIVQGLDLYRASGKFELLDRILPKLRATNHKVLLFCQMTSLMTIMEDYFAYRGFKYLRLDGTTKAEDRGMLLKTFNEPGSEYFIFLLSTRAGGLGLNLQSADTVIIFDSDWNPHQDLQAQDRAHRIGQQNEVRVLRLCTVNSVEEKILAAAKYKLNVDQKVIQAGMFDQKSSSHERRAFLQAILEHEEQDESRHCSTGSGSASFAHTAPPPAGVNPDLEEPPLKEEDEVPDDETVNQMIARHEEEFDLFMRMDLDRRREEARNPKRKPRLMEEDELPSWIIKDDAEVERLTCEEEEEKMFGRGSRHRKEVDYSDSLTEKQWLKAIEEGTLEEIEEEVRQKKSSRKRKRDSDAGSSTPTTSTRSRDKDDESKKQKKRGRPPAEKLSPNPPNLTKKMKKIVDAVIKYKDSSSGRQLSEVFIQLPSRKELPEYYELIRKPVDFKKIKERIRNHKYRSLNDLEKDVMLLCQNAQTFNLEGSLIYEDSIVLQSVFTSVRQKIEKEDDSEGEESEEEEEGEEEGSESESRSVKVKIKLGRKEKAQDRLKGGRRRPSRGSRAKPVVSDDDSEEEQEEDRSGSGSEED

Compound: C[C@H]1CCCN(c2cccc(-c3csc(NC(=O)CNC(=O)c4ccn(S(C)(=O)=O)c4)n3)n2)C1 [Compound 340]
IC50 (BRM; [1]): > 0.01 µM
IC50 (BRG-1; [2]): > 0.01 µM

Compound: C[C@@H]1CN(c2cccc(-c3csc(NC(=O)CNC(=O)c4ccn(C(C)(C)C#N)c4)n3)c2)C[C@H](C)O1 [Compound 162]
IC50 (BRM; [1]): < 0.01 µM
IC50 (BRG-1; [2]): < 0.01 µM

Compound: CN(C)CCNc1cc(-c2cccc(-c3csc(NC(=O)CNC(=O)c4ccn(S(C)(=O)=O)c4)n3)c2)ccn1 [Compound 20, N-(2-((4-(3-(2-((2-(dimethylamino)ethyl)amino)pyridin-4-yl)phenyl)thiazol-2-yl)amino)-2-oxoethyl)-1-(methylsulfonyl)-1H-pyrrole-3-carboxamide]
IC50 (BRM; [1]): > 0.01 µM
IC50 (BRG-1; [2]): > 0.01 µM

Compound: Cn1c(=O)ccc2ccc(-c3csc(NC(=O)CNC(=O)c4ccn(C(C)(C)C)c4)n3)cc21 [Compound 133, 1-(tert-butyl)-N-(2-((4-(1-methyl-2-oxo-1,2-dihydroquinolin-7-yl)thiazol-2-yl)amino)-2-oxoethyl)-1H-pyrrole-3-carboxamide]
IC50 (BRM; [1]): > 0.1 µM
IC50 (BRG-1; [2]): > 0.1 µM

Compound: CS(=O)(=O)n1ccc(C(=O)NCC(=O)Nc2nc(-c3cccc([C@H]4CC[C@@H](O)CC4)c3)cs2)c1 [Compound 387, N-(2-((4-(3-((cis)-4-hydroxycyclohexyl)phenyl)thiazol-2-yl)amino)-2-oxoethyl)-1-(methylsulfonyl)-1H-pyrrole-3-carboxamide]
IC50 (BRM; [3]): > 0.01 µM
IC50 (BRG-1; [4]): > 0.01 µM

Compound: CS(=O)(=O)n1ccc(C(=O)NCC(=O)Nc2nc(-c3cccc(-c4ccnc(N5CCNCC5)c4)c3)cs2)c1 [Compound 54, 1-(methylsulfonyl)-N-(2-oxo-2-((4-(3-(2-(piperazin-1-yl)pyridin-4-yl)phenyl)thiazol-2-yl)amino)ethyl)-1H-pyrrole-3-carboxamide]
IC50 (BRM; [1]): < 0.01 µM
IC50 (BRG-1; [2]): < 0.01 µM

Compound: CC1(C)CN(c2cccc(-c3csc(NC(=O)CNC(=O)c4ccn(S(C)(=O)=O)c4)n3)c2)CCO1 [Compound 89, N-(2-((4-(3-(2,2-dimethylmorpholino)phenyl)thiazol-2-yl)amino)-2-oxoethyl)-1-(methylsulfonyl)-1H-pyrrole-3-carboxamide]
IC50 (BRM; [1]): > 0.01 µM
IC50 (BRG-1; [2]): > 0.01 µM

Compound: CC(C)(C)n1ccc(C(=O)NCC(=O)Nc2nc(-c3cccc(N4CCC(O)CC4)n3)cs2)c1 [Compound 314]
IC50 (BRM; [1]): > 0.01 µM
IC50 (BRG-1; [2]): > 0.01 µM

Compound: CN1CCc2ccc(-c3csc(NC(=O)CNC(=O)c4ccn(S(C)(=O)=O)c4)n3)cc21 [Compound 270]
IC50 (BRM; [1]): > 0.01 µM
IC50 (BRG-1; [2]): > 0.01 µM

Compound: CS(=O)(=O)n1ccc(C(=O)NCC(=O)Nc2nc(-c3cccc(-c4cnn(C(F)F)n4)c3)cs2)c1 [Compound 289]
IC50 (BRM; [1]): > 0.01 µM
IC50 (BRG-1; [2]): > 0.01 µM

Compound: C[C@H]1CN(c2cccc(-c3csc(NC(=O)CNC(=O)c4ccn(S(C)(=O)=O)c4)n3)c2)[C@@H](C)CO1 [Compound 160]
IC50 (BRM; [1]): > 0.01 µM
IC50 (BRG-1; [2]): > 0.1 µM

Compound: CN1CCCc2ccc(-c3csc(NC(=O)CNC(=O)c4ccn(C(C)(C)C)c4)n3)cc21 [Compound 305]
IC50 (BRM; [1]): > 0.01 µM
IC50 (BRG-1; [2]): > 0.01 µM

Compound: CS(=O)(=O)n1ccc(C(=O)NCC(=O)Nc2nc(-c3cccc(N4CC(n5cccn5)C4)c3)cs2)c1 [Compound 174]
IC50 (BRM; [1]): > 0.01 µM
IC50 (BRG-1; [2]): > 0.01 µM

Compound: CO[C@@H]1CN(c2cccc(-c3csc(NC(=O)CNC(=O)c4ccn(S(C)(=O)=O)c4)n3)c2)C[C@H]1F [Compound 168]
IC50 (BRM; [1]): > 0.01 µM
IC50 (BRG-1; [2]): > 0.01 µM

Compound: CO[C@H]1CCN(c2cccc(-c3csc(NC(=O)CNC(=O)c4ccn(S(C)(=O)=O)c4)n3)c2)C1 [Compound 224]
IC50 (BRM; [1]): > 0.01 µM
IC50 (BRG-1; [2]): > 0.01 µM

Compound: C[C@@H]1C[C@@H](COc2cccc(-c3csc(NC(=O)CNC(=O)c4ccn(S(C)(=O)=O)c4)n3)c2)C[C@H](C)O1 [Compound 291]
IC50 (BRM; [1]): > 0.01 µM
IC50 (BRG-1; [2]): > 0.01 µM

Compound: CN(C)c1cccc(-c2csc(NC(=O)CNC(=O)c3ccn(C(C)(C)C)c3)n2)c1 [Compound 288]
IC50 (BRM; [1]): > 0.01 µM
IC50 (BRG-1; [2]): > 0.01 µM

Compound: C[C@@H]1CN(c2cccc(-c3csc(NC(=O)CNC(=O)c4ccn(S(C)(=O)=O)c4)n3)c2F)C[C@H](C)O1 [Compound 294]
IC50 (BRM; [1]): > 0.01 µM
IC50 (BRG-1; [2]): > 0.01 µM

Compound: CC1(C)CN(c2cccc(-c3csc(NC(=O)CNC(=O)c4ccn(S(C)(=O)=O)c4)n3)c2)CC[C@H]1O [Compound 164]
IC50 (BRM; [1]): < 0.01 µM
IC50 (BRG-1; [2]): > 0.01 µM

Compound: CN1CCC(OCc2cccc(-c3csc(NC(=O)CNC(=O)c4ccn(C(C)(C)C)c4)n3)c2)CC1 [Compound 127, 1-(tert-butyl)-N-(2-((4-(3-(((1-methylpiperidin-4-yl)oxy)methyl)phenyl)thiazol-2-yl)amino)-2-oxoethyl)-1H-pyrrole-3-carboxamide]
IC50 (BRM; [1]): > 0.1 µM
IC50 (BRG-1; [2]): > 0.1 µM

Compound: CCn1ccc2ccc(-c3csc(NC(=O)[C@H](COC)NC(=O)c4ccn(C(C)(C)C)c4)n3)cc2c1=O [Compound 347]
IC50 (BRM; [1]): > 0.01 µM
IC50 (BRG-1; [2]): > 0.01 µM

Compound: CC(C)(C)n1ccc(C(=O)NCC(=O)Nc2nc(-c3cccc(COC4CCOC4)c3)cs2)c1 (stereo not drawn) [Compound 129, 1-(tert-butyl)-N-(2-oxo-2-((4-(3-(((tetrahydrofuran-3-yl)oxy)methyl)phenyl)thiazol-2-yl)amino)ethyl)-1H-pyrrole-3-carboxamide]
IC50 (BRM; [1]): > 0.01 µM
IC50 (BRG-1; [2]): > 0.01 µM

Compound: CO[C@H]1C[C@@H](Oc2cccc(-c3csc(NC(=O)CNC(=O)c4ccn(S(C)(=O)=O)c4)n3)c2)C1 [Compound 254]
IC50 (BRM; [1]): > 0.01 µM
IC50 (BRG-1; [2]): > 0.01 µM

Results, then the molecule that gave them:

IC50 (BRM; read-out: BRM IP50): > 0.01 µM
IC50 (BRG-1; read-out: BRG1 IP50): > 0.01 µM
Compound: CN1CCOc2ccc(-c3csc(NC(=O)CNC(=O)c4ccn(C(C)(C)C#N)n4)n3)cc21 [Compound 787]

IC50 (BRM; [3]): > 0.01 µM
IC50 (BRG-1; [4]): > 0.01 µM
Compound: COC[C@H](NC(=O)c1ccn(S(C)(=O)=O)c1)C(=O)Nc1nc(-c2cccc(C#N)c2)cs1 [Compound 712]

IC50 (BRM; [3]): > 0.1 µM
IC50 (BRG-1; [4]): > 0.1 µM
Compound: CC(C)(C)n1ccc(C(=O)NCC(=O)Nc2nc(-c3cccc(N4C[C@@H]5OCC(F)(F)[C@@H]5C4)n3)cs2)c1 [Compound 661]

IC50 (BRM; [3]): < 0.01 µM
IC50 (BRG-1; [4]): < 0.01 µM
Compound: COC[C@H](NC(=O)c1ccn(C2(C#N)CCC2)c1)C(=O)Nc1nc(-c2cccc(N3C[C@@H](C)O[C@@H](C)C3)n2)cs1 [Compound 730]

IC50 (BRM; read-out: BRM IP50): > 0.01 µM
IC50 (BRG-1; read-out: BRG1 IP50): > 0.01 µM
Compound: COC[C@H](NC(=O)c1ccn(C(C)(C)C#N)n1)C(=O)Nc1nc(-c2ccc3ccn(C)c(=O)c3c2)cs1 [Compound 816]

IC50 (BRM; [3]): < 0.01 µM
IC50 (BRG-1; [4]): > 0.01 µM
Compound: COC[C@H](NC(=O)c1ccn(S(C)(=O)=O)c1)C(=O)Nc1nc(-c2ccc3c(c2)OCO3)cs1 [Compound 596]

IC50 (BRM; [3]): < 0.01 µM
IC50 (BRG-1; [4]): > 0.01 µM
Compound: CS(=O)(=O)n1ccc(C(=O)NCC(=O)Nc2nc(-c3cccc([C@H]4CC4(F)F)c3)cs2)c1 [Compound 576]

IC50 (BRM; [3]): > 0.01 µM
IC50 (BRG-1; [4]): > 0.1 µM
Compound: C[C@@H]1CCN(c2cccc(-c3csc(NC(=O)CNC(=O)c4ccn(C(C)(C)C)c4)n3)n2)C[C@H]1F (racemic) [Compound 702, 1-tert-butyl-N-[2-[[4-[6-[(3S,4R)-3-fluoro-4-methyl-1-piperidyl]-2-pyridyl]thiazol-2-yl]amino]-2-oxo-ethyl]pyrrole-3-carboxamide]

IC50 (BRM; [3]): > 0.01 µM
IC50 (BRG-1; [4]): > 0.01 µM
Compound: C[C@@H]1Cc2ccc(-c3csc(NC(=O)CNC(=O)c4ccn(S(C)(=O)=O)c4)n3)cc2O1 [Compound 517]

IC50 (BRM; [3]): > 0.1 µM
IC50 (BRG-1; [4]): > 0.1 µM
Compound: CS(=O)(=O)n1ccc(C(=O)NCC(=O)Nc2nc(-c3cccc(N4C[C@H]5C[C@@H]4C[C@H]5O)c3)cs2)c1 (racemic) [Compound 468]

IC50 (BRM; [3]): > 0.1 µM
IC50 (BRG-1; [4]): > 0.1 µM
Compound: CC(C)(C)n1ccc(C(=O)NCC(=O)Nc2nc(-c3cccc(N4CC5(COC5)C4)n3)cs2)c1 [Compound 644]

IC50 (BRM; [3]): > 0.01 µM
IC50 (BRG-1; [4]): > 0.01 µM
Compound: CC(C)(C)n1ccc(C(=O)NCC(=O)Nc2nc(-c3cccc(N4CCC5OCCC5C4)n3)cs2)c1 (stereo not drawn) [Compound 676]

IC50 (BRM; [3]): > 0.01 µM
IC50 (BRG-1; [4]): > 0.01 µM
Compound: COC[C@H](NC(=O)c1ccn(C2(C)COC2)c1)C(=O)Nc1nc(-c2ccc3ccn(C)c(=O)c3c2)cs1 [Compound 453]

IC50 (BRM; [3]): > 0.01 µM
IC50 (BRG-1; [4]): > 0.01 µM
Compound: CS(=O)(=O)n1ccc(C(=O)NCC(=O)Nc2nc(-c3cccc(N4CC[C@@H](C(F)F)C4)n3)cs2)c1 [Compound 683]

IC50 (BRM; [3]): < 0.01 µM
IC50 (BRG-1; [4]): > 0.01 µM
Compound: C[C@@H]1CN(c2cccc(-c3csc(NC(=O)CNC(=O)c4ccn(C5(C#N)CC5)c4)n3)n2)C[C@H](C)O1 [Compound 458]

IC50 (BRM; read-out: BRM IP50): < 0.01 µM
IC50 (BRG-1; read-out: BRG1 IP50): > 0.01 µM
Compound: COC[C@H](NC(=O)c1ncc(C(C)(C)C)o1)C(=O)Nc1nc(-c2cc(F)cc(-c3cnn(C)n3)c2)cs1 [Compound 825]

IC50 (BRM; read-out: BRM IP50): > 0.01 µM
IC50 (BRG-1; read-out: BRG1 IP50): > 0.01 µM
Compound: Cn1ccc(-c2cccc(-c3csc(NC(=O)CNC(=O)c4ccn(C(C)(C)C#N)n4)n3)c2)n1 [Compound 790]

IC50 (BRM; [3]): > 0.01 µM
IC50 (BRG-1; [4]): > 0.1 µM
Compound: CN(C)[C@@H]1CCN(c2cccc(-c3csc(NC(=O)CNC(=O)c4ccn(C(C)(C)C)c4)n3)n2)C1 [Compound 670]

IC50 (BRM; [3]): < 0.01 µM
IC50 (BRG-1; [4]): < 0.01 µM
Compound: CN(C)C(=O)C1(c2cc(-c3cccc(-c4csc(NC(=O)CNC(=O)c5ccn(S(C)(=O)=O)c5)n4)c3)ccn2)CC1 [Compound 439]

IC50 (BRM; [3]): > 0.01 µM
IC50 (BRG-1; [4]): > 0.01 µM
Compound: CC1(n2ccc(C(=O)NCC(=O)Nc3nc(-c4cccc(N5CCC5)c4F)cs3)c2)COC1 [Compound 525]

IC50 (BRM; [3]): < 0.01 µM
IC50 (BRG-1; [4]): < 0.01 µM
Compound: CC(C)(C)n1ccc(C(=O)NCC(=O)Nc2nc(-c3cccc(N4CC[C@H]5COC[C@@H]5C4)n3)cs2)c1 [Compound 662]

IC50 (BRM; [3]): > 0.1 µM
IC50 (BRG-1; [4]): > 0.1 µM
Compound: CCOC1CCN(c2cccc(-c3csc(NC(=O)CNC(=O)c4ccn(C(C)(C)C)c4)n3)n2)CC1 [Compound 642]
